Data published in US7615361B2, “Toxicity screening methods” (Ceetox, Inc., priority 2006, dated 2009).

What was measured:
H4IIE cells [1] = test: MemTox membrane leakage (AK / α-GST); format: cell-based, rat; details: rat, 24 h
Outline: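 H4IIE rat hepatoma cells were exposed to compound diluted in complete culture medium. Leakage of adenylate kinase (luminescence) and/or α-GST (ELISA, 450/650 nm) was measured in the medium collected at the end of exposure. Percent live cells was computed relative to 1 mM digitonin-treated maximum release, as means of n=3-7.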

H4IIE cells [2] = test: Cell number (propidium iodide); format: cell-based, rat; details: rat, 24 h
Outline: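 Rat hepatoma H4IIE cells exposed to compound in complete medium, then lysed with Triton X-100 containing propidium iodide; fluorescence read at 540/610 nm. Blank-subtracted RFU expressed as percent of untreated control cells, means of n=3-7.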

H4IIE cells [3] = test: Intracellular total glutathione (GSH); format: cell-based, rat; details: rat, 24 h
Outline: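 Rat hepatoma H4IIE cells were exposed to compound in dosing solutions made in complete culture medium, then harvested for biochemical measurement of intracellular total glutathione as an oxidative-stress marker. Values are exposure-group means, n=3-7.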

human hepatocytes = test: Caspase 3 activity (apoptosis); format: cell-based; details: 24 HR
Experimental: Caspase 3 Procedure: Caspase 3 activity was determined using a caspase substrate (DEVD, Asp-Glu-Val-Asp) labeled with a fluorescent molecule, 7-Amino4-methylcoumarin (AMC). Caspase 3 cleaves the tetrapeptide between D and AMC, thus releasing the fluorogenic […] AMC. Following the test article exposure to cells in 96-well plates, medium was aspirated from plates and PBS added to each well. Plates were stored at −80° C. to lyse cells and store samples until further analysis. On the day of analysis, plates were removed from freezer and thawed. Caspase buffer with fluorescent substrate was added to each well and incubated at room temperature for 1 hr. AMC release was measured in a spectrofluorometer at an excitation wavelength of 360 nm and an emission wavelength of 460 nm. Values are expressed as relative fluorescent units (RFU).
Caspase Activity: After sample plates were completely thawed, the caspase substrate buffer mix was added to each plate. Plates were incubated at room temperature for 1hr, shielded from light. Plates were read using a in a spectrofluorometer at an excitation wavelength of 360 nm and an emission wavelength of 460 nm. Values were expressed as relative fluorescent units (RFU).
The apoptosis data is expressed in Table 2 as a ratio of the magnitude of response versus the exposure concentration that produced the response. […]

C32 cells = test: Predicted Ctox from Tox-Panel; format: cell-based, human; details: C32, 24 HR
Experimental: Studies such as these indicate that a preferred concentration for setting Ctox is the highest concentration at which there is no observed effect on any of the indicators being measured in the cluster analysis, especially a 24-hour cluster analysis. […] It will be apparent that 24 hour assays are more time-effective, and consequently, the 24 hour NOEL/Ctox represents a preferred data point to select as Ctox in a CATS assay. It will also be apparent that, with further time studies, it may be possible to select an equally suitable Ctox at other CATS assay time points (e.g., between 24 and 72 hours, or less than 24 hours).
In certain embodiments, the predicting comprises performing concentration response analyses of measurements from at least three separate assays that are employed in the cluster analysis. For example, in the cell health cluster, such predicting will involve monitoring the concentration response effect of the compound on a first health indicator which monitors cellular replication, a second cell health indicator which monitors mitochondrial function, and a third cell health indicator which monitors membrane integrity. Of course, it is understood that fourth, fifth, sixth or more cell health indicators also may be employed. From these concentration response analyses, the highest concentration of the chemical compound at which a measurable toxic effect of the chemical compound is not observable, i.e. NOEL, is determined and the Ctox is identified as the concentration that correlates to the NOEL. In choosing the concentrations of the compound for analysis, one of skill in the art should devise a dose response regimen which is selected to provide an indication of cell health at concentrations of at least two concentration values higher than the Ctox concentration.
The results are summarized in Tables 14-17 and in FIGS. 83-102. Table 14 compares the test compound TC50 values for each assay endpoint. Test compounds are rank-ordered from most to least toxic based on their TC50 values and overall shape of the response curves. The Ctox value, or estimated sustained blood concentration where toxicity would first be expected to occur in a rat 14-day repeated dose study, is also included in this table. Negative and positive controls are included with every run. Assay response is continually monitored to assure reliable results. […] Table 15 summarizes oxidative stress and apoptosis data, Table 16 summarizes the solubility data, and Table 17 provides information on interaction with PgP.
The Ctox value was developed using 24 hr in vitro (H4IIE) toxicity data and was validated by retrospectively evaluating compounds across different classes of drugs in 14-day rat studies in which compounds were administered on a daily basis and pharmacokinetic data was available. […] Thus, Ctox values are only determined for the 24 hr in vitro results. In this example, Ctox values could not be estimated due to low toxicity in most of the cell lines.

Structure (SMILES)	less toxic in liver cells than in the cardiomyocytes (TC50 for membrane integrity) (H4IIE cells [1])	CC50 (H4IIE cells [2])	CC50 (H4IIE cells [3])	Caspase 3 Activity (Index/Dose): Index (human hepatocytes)	Caspase 3 Activity (Index/Dose): Dose (human hepatocytes; controls (μM section))	Predicted Ctox (C32 cells)
COc1cccc2c1C(=O)c1c(O)c3c(c(O)c1C2=O)C[C@@](O)(C(=O)CO)C[C@@H]3O[C@H]1C[C@H](N)[C@H](O)[C@H](C)O1 [ADRIAMYCIN, Adriamycin]	approximately 5 fold	9 µM	48 µM			
CC[C@@]1(O)C(=O)OCc2c1cc1n(c2=O)Cc2cc3ccccc3nc2-1 [CAMPTOTHECIN, Camptothecin]				3 (400-600 = 3)	100	0.1 µM
